Read-outs that look alike come from different tables or passages of the source.
Columns and labels:
[1] = system: PGE2 secreted by synoviocyte; assay: Content of PGE2 in culture supernatant of synoviocyte of RA model rats given test compound; type: in vivo; details: rat RA model, dose 30 mg/kg.2d; normal control 8.34 ± 1.29, NaCl 32.44 ± 10.32
In short: (§1)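 Rat RA model: compounds given at 30 mg/kg.2d, with normal control and NaCl groups. Synoviocyte culture supernatants assayed for secreted TNF-α and PGE2 by one referenced method, IL-1β by another.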

[2] = system: TNF-α secreted by synoviocyte; assay: Content of TNF-α in culture supernatant of synoviocyte of RA model rats given test compound; type: in vivo; details: rat RA model, dose 30 mg/kg.2d; normal control 0.38 ± 0.027, NaCl 0.74 ± 0.098
In short: as §1

cancer cells = assay: Survival rate of cancer cells after test compound is added (flow cytometry, Annexin V-FITC/PI, clinical specimen); type: cell-based, patient; details: Homo sapiens, 18 h, read-out: Survival rate (%) All cells (Stem cells and ordinary cells)
In short: (§2)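 Ficoll-isolated mononuclear cells from patient specimens (e.g. AML) in serum-free IMDM at 1×10^6/mL were exposed to compound for 18 hours. Cells were stained for stem-cell markers (CD34+CD38+ for AML) plus Annexin V-FITC/PI, and apoptosis was read by flow cytometry within one hour.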

cancer stem cells = assay: Survival rate of cancer stem cells after test compound is added (flow cytometry, Annexin V-FITC/PI, clinical specimen); type: cell-based, patient; details: Homo sapiens, 18 h
In short: as §2

[3] = system: IL-1β secreted by synoviocyte; assay: Content of IL-1β in culture supernatant of synoviocyte of RA model rats given test compound; type: in vivo; details: rat RA model, dose 30 mg/kg.2d; normal control 0.16 ± 0.034, NaCl 0.49 ± 0.136
In short: as §1

[4] = Head and neck squamous cell carcinomas

C=C1C(=O)O[C@@H]2[C@@H]3[C@@H](CC[C@@]3(C)O)C(=C)CC[C@@H]12 [Compound 48]
Content of PGE2 in culture supernatant of synoviocyte (x ± s) [1]: 26.65 ± 2.45 ng/mL | Content of TNF-α in culture supernatant of synoviocyte (x ± s) [2]: 0.62 ± 0.054 ng/mL | viability at 10 µM (cancer cells; AML): 59% | viability at 20 µM (cancer cells; AML): 48% | viability at 10 µM (cancer cells; Brain glioma): 66% | viability at 20 µM (cancer cells; Brain glioma): 54% | viability at 10 µM (cancer cells; Brain tumor): 78% | viability at 20 µM (cancer cells; Brain tumor): 69% | viability at 10 µM (cancer cells; Breast cancer): 76% | viability at 20 µM (cancer cells; Breast cancer): 58% | viability at 10 µM (cancer cells; CLL): 67% | viability at 20 µM (cancer cells; CLL): 48% | viability at 10 µM (cancer cells; CML): 69% | viability at 20 µM (cancer cells; CML): 51% | viability at 10 µM (cancer cells; Children hepatoblastoma): 75% | viability at 20 µM (cancer cells; Children hepatoblastoma): 68% | viability at 10 µM (cancer cells; Colon adenocarcinoma): 66% | viability at 20 µM (cancer cells; Colon adenocarcinoma): 56% | viability at 10 µM (cancer cells; Colorectal cancer): 79% | viability at 20 µM (cancer cells; Colorectal cancer): 67% | viability at 10 µM (cancer cells; Gastric cancer): 66% | viability at 20 µM (cancer cells; Gastric cancer): 48% | viability at 10 µM (cancer cells; Gastrointestinal tumor): 73% | viability at 20 µM (cancer cells; Gastrointestinal tumor): 62% | viability at 10 µM (cancer cells; Glioma): 78% | viability at 20 µM (cancer cells; Glioma): 74% | viability at 10 µM (cancer cells; [4]): 73% | viability at 20 µM (cancer cells; [4]): 68% | viability at 10 µM (cancer cells; Laryngeal cancer): 76% | viability at 20 µM (cancer cells; Laryngeal cancer): 66% | viability at 10 µM (cancer cells; Liver cancer): 82% | viability at 20 µM (cancer cells; Liver cancer): 73% | viability at 10 µM (cancer cells; Lung adenocarcinoma): 77% | viability at 20 µM (cancer cells; Lung adenocarcinoma): 64% | viability at 10 µM (cancer cells; Lung cancer): 72% | viability at 20 µM (cancer cells; Lung cancer): 67% | viability at 10 µM (cancer cells; Malignant melanoma): 88% | viability at 20 µM (cancer cells; Malignant melanoma): 86% | viability at 10 µM (cancer cells; Nasopharynx cancer): 64% | viability at 20 µM (cancer cells; Nasopharynx cancer): 59% | viability at 10 µM (cancer cells; Ovarian cancer): 68% | viability at 20 µM (cancer cells; Ovarian cancer): 61% | viability at 10 µM (cancer cells; Pancreatic cancer): 68% | viability at 20 µM (cancer cells; Pancreatic cancer): 62% | viability at 10 µM (cancer cells; Prostate cancer): 75% | viability at 20 µM (cancer cells; Prostate cancer): 62% | viability at 10 µM (cancer cells; Retinoblastoma): 82% | viability at 20 µM (cancer cells; Retinoblastoma): 69% | viability at 10 µM (cancer cells; Skin cancer): 62% | viability at 20 µM (cancer cells; Skin cancer): 47% | viability at 10 µM (cancer stem cells; AML): 47% | viability at 20 µM (cancer stem cells; AML): 38% | viability at 10 µM (cancer stem cells; Brain glioma): 52% | viability at 20 µM (cancer stem cells; Brain glioma): 43% | viability at 10 µM (cancer stem cells; Brain tumor): 66% | viability at 20 µM (cancer stem cells; Brain tumor): 53% | viability at 10 µM (cancer stem cells; Breast cancer): 54% | viability at 20 µM (cancer stem cells; Breast cancer): 47% | viability at 10 µM (cancer stem cells; CLL): 46% | viability at 20 µM (cancer stem cells; CLL): 38% | viability at 10 µM (cancer stem cells; CML): 51% | viability at 20 µM (cancer stem cells; CML): 46% | viability at 10 µM (cancer stem cells; Children hepatoblastoma): 68% | viability at 20 µM (cancer stem cells; Children hepatoblastoma): 56% | viability at 10 µM (cancer stem cells; Colon adenocarcinoma): 58% | viability at 20 µM (cancer stem cells; Colon adenocarcinoma): 49% | viability at 10 µM (cancer stem cells; Colorectal cancer): 66% | viability at 20 µM (cancer stem cells; Colorectal cancer): 55% | viability at 10 µM (cancer stem cells; Gastric cancer): 51% | viability at 20 µM (cancer stem cells; Gastric cancer): 39% | viability at 10 µM (cancer stem cells; Gastrointestinal tumor): 57% | viability at 20 µM (cancer stem cells; Gastrointestinal tumor): 52% | viability at 10 µM (cancer stem cells; Glioma): 69% | viability at 20 µM (cancer stem cells; Glioma): 60% | viability at 10 µM (cancer stem cells; [4]): 64% | viability at 20 µM (cancer stem cells; [4]): 58% | viability at 10 µM (cancer stem cells; Laryngeal cancer): 63% | viability at 20 µM (cancer stem cells; Laryngeal cancer): 55% | viability at 10 µM (cancer stem cells; Liver cancer): 74% | viability at 20 µM (cancer stem cells; Liver cancer): 61% | viability at 10 µM (cancer stem cells; Lung adenocarcinoma): 67% | viability at 20 µM (cancer stem cells; Lung adenocarcinoma): 55% | viability at 10 µM (cancer stem cells; Lung cancer): 61% | viability at 20 µM (cancer stem cells; Lung cancer): 54% | viability at 10 µM (cancer stem cells; Malignant melanoma): 82% | viability at 20 µM (cancer stem cells; Malignant melanoma): 76% | viability at 10 µM (cancer stem cells; Nasopharynx cancer): 57% | viability at 20 µM (cancer stem cells; Nasopharynx cancer): 48% | viability at 10 µM (cancer stem cells; Ovarian cancer): 56% | viability at 20 µM (cancer stem cells; Ovarian cancer): 45% | viability at 10 µM (cancer stem cells; Pancreatic cancer): 55% | viability at 20 µM (cancer stem cells; Pancreatic cancer): 49% | viability at 10 µM (cancer stem cells; Prostate cancer): 62% | viability at 20 µM (cancer stem cells; Prostate cancer): 51% | viability at 10 µM (cancer stem cells; Retinoblastoma): 62% | viability at 20 µM (cancer stem cells; Retinoblastoma): 54% | viability at 10 µM (cancer stem cells; Skin cancer): 46% | viability at 20 µM (cancer stem cells; Skin cancer): 39% | Content of IL-1β in culture supernatant of synoviocyte (x ± s) [3]: 0.38 ± 0.046 ng/mL

Reference: US10463644B2, “Uses of sesquiterpene lactone compounds and their derivatives in drugs preparation” (ACCENDATECH, priority 2013, dated 2019)
